The text below walks through data of patent publication US4368261A, “Method and reagent for the determination of triglycerides” (priority 1979, dated 1983).

Holding throughout (assay): Stability of glycerokinase in the presence of dichlorophenol at 25° C. (Table 2)
Holding throughout (type): biochemical

For test [1], the target named is glycerokinase (GK) from Bacillus stearothermophilis (Geobacillus stearothermophilus, UniProt A0ACH1EBP7). From the text:
(§1) It is known that Bacillus stearothermophilis contains a glycerokinase (see J. Appl. Bac., 38, 301-304/1975). However, it could not be deduced from this that this glycerokinase would display a good stability towards the mentioned group of activators which would permit its use together with these activators.

Test [2] concerns the target T1, glycerokinase (GK) from Escherichia coli (commercially available) (Escherichia coli, UniProt P0A6F3).
T1 construct: purchased
Excerpt: as §1

Test [3] has as its system glycerokinase (GK, E.C. 2.7.1.30) from Candida mycoderma.
Excerpt: as §1

As for dichlorophenol, the “residual activity after 30 min.” value in test [1] (2 mM dichlorophenol) was 100%; in test [1] (5 mM dichlorophenol) it was 100%; in test [2] (2 mM dichlorophenol), 93%; in test [2] (5 mM dichlorophenol) it was 81%; in test [3] (2 mM dichlorophenol), 68%; in test [3] (5 mM dichlorophenol) it was 18%. The “residual activity after 60 min.” value in test [1] (2 mM dichlorophenol) stood at 100%; in test [1] (5 mM dichlorophenol), 100%; in test [2] (2 mM dichlorophenol), 87%; in test [2] (5 mM dichlorophenol) it was 58%; in test [3] (2 mM dichlorophenol), 56%; in test [3] (5 mM dichlorophenol), 7%.
